Measurements published in article PMC9266561, “1,3-Benzodioxole Derivatives Improve the Anti-Tumor Efficiency of Arsenicals” (International Journal of Molecular Sciences, 2022).
Read-outs that look alike come from different tables or passages of the source.

Legend:
Assay in all cases: cells
[1] = tested on: Molm-13; type: cell-based; conditions: Homo sapiens
[2] = tested on: NB4; type: cell-based; conditions: Homo sapiens
[3] = tested on: 4T1; type: cell-based; conditions: Mus musculus
[4] = tested on: HeLa; type: cell-based, human; conditions: Homo sapiens, HeLa
[5] = tested on: COS-7; type: cell-based, African green monkey; conditions: Chlorocebus sabaeus
[6] = tested on: PBMC; type: cell-based, rat; conditions: Rattus norvegicus, PBMC
[7] = MOLM-13, 24 h, read-out: IC50 Molm 24 h
[8] = MOLM-13, 48 h, read-out: IC50 Molm 48 h
[9] = NB-4, 24 h, read-out: IC50 NB4 24 h
[10] = NB-4, 48 h, read-out: IC50 NB4 48 h
[11] = 4T1, 24 h, read-out: IC50 4T1 24 h
[12] = 4T1, 48 h, read-out: IC50 4T1 48 h
[13] = COS-7, 24 h, read-out: IC50 COS-7 24 h
[14] = COS-7, 48 h, read-out: IC50 COS-7 48 h

SMILES | IC50 [1, 7] [nM] | IC50 [1, 8] [nM] | IC50 [2, 9] [nM] | IC50 [2, 10] [nM] | IC50 [3, 11] [nM] | IC50 ([3]; 4T1, 48 h, read-out: IC50 4T1) [nM] | IC50 [3, 12] [nM] | IC50 ([4]; 24 h, read-out: IC50 HeLa 24 h) [nM] | IC50 ([4]; 48 h, read-out: IC50 HeLa 48 h) [nM] | IC50 [5, 13] [nM] | IC50 [5, 14] [nM] | IC50 ([6]; 24 h, read-out: IC50 PBMC 24 h) [nM] | IC50 ([6]; 48 h, read-out: IC50 PBMC 48 h) [nM] | IC50 ([2]; NB-4, 24 h, read-out: IC50 NB4) [nM] | IC50 ([3]; 4T1, 24 h, read-out: IC50 4T1) [nM] | IC50 ([1]; MOLM-13, 24 h, read-out: IC50 Molm) [nM] | IC50 ([1]; MOLM-13, 48 h, read-out: IC50 Molm) [nM] | IC50 ([2]; NB-4, 48 h, read-out: IC50 NB4) [nM]
Cc1ccc(C(=O)Nc2ccc([As]3SCCCS3)cc2)cc1 [MZ2, N-(4-(1,3,2-dithiarsinan-2-yl)phenyl)-4-methylbenzamide] | 1200 | 800 | 400 | 300 | 1200 | 400 ± 110 | 910 | 610 | 400 | 3400 | 1210 | 3400 | 2700 | – | – | – | – | –
COc1ccc(C(=O)Nc2ccccc2[As]2SCCCS2)cc1OC [DAZ5, N-(2-(1,3,2-dithiarsinan-2-yl)phenyl)-3,4-dimethoxybenzamide] | 450 | 320 | 800 | 510 | 600 | – | 500 | 810 | 550 | 1610 | 1270 | 4100 | 3500 | – | – | – | – | –
O=C(Nc1ccc([As]2SCCCS2)cc1)c1ccc2c(c1)OC(F)(F)O2 [PFZ2, N-(4-(1,3,2-dithiarsinan-2-yl)phenyl)-2,2-difluorobenzo[d][1,3]dioxole-5-carboxamide] | 800 | 700 | 500 | 300 | 1000 | – | 800 | 500 | 150 | 6000 | 3500 | 6300 | 5700 | – | – | – | – | –
COc1ccc(C(=O)Nc2ccc([As]3SCCCS3)cc2)cc1OC [DAZ2, N-(4-(1,3,2-dithiarsinan-2-yl)phenyl)-3,4-dimethoxybenzamide] | 900 | 750 | 1710 | 1140 | 1500 | – | 1200 | 2300 | 1060 | 7100 | 3300 | 6200 | 5700 | – | – | – | – | –
O=C(Nc1ccc([As]2SCCCS2)cc1)c1ccc2c(c1)OCO2 [PZ2, N-(4-(1,3,2-dithiarsinan-2-yl)phenyl)benzo[d][1,3]dioxole-5-carboxamide] | 1060 | 750 | 700 | 440 | 2600 | 3350 ± 420 | 3400 | 700 | 440 | 4100 | 1750 | 6400 | 5300 | 850 ± 100 | 2550 ± 220 | – | – | –
CC(=O)Oc1ccc(C(=O)Nc2ccc([As]3SCCCS3)cc2)cc1 [AZ2, 4-((4-(1,3,2-dithiarsinan-2-yl)phenyl)carbamoyl)phenyl acetate] | 1100 | 1000 | 600 | 600 | 2000 | – | 1000 | 800 | 500 | 2200 | 2100 | 5200 | 4900 | 600 ± 50 | – | 1110 ± 100 | 1010 ± 20 | 600 ± 30
O=C(Nc1ccccc1[As]1SCCCS1)c1ccc2c(c1)OCO2 [PZ5, N-(2-(1,3,2-dithiarsinan-2-yl)phenyl)benzo[d][1,3]dioxole-5-carboxamide] | 270 | 240 | 260 | 140 | 400 | – | 830 | 260 | 140 | 1010 | 820 | 5000 | 4500 | 300 ± 30 | – | – | – | 200 ± 20
